Data as given in ChEMBL document CHEMBL1157539, “Thousands of chemical starting points for antimalarial lead identification” (Nature, 2010).

test system: Plasmodium falciparum; test: GSK_TCMDC: Inhibition of Plasmodium falciparum 3D7 in whole erythrocytes, using parasite LDH activity as an index of growth.; type: functional, organism-based; details: Plasmodium falciparum, 3D7

SMILES	XC50
O=C(Nc1cccc(-c2ccc(-c3nc4ccccc4[nH]3)cc2)c1)c1csnn1	1070 nM
CCc1ccc2nc(-c3ccc(F)cc3)nc(SCC(=O)Nc3sc(C)c(C)c3C#N)c2c1	643 nM
Cc1cc(C)c(O)c(-c2cc(C(=O)Nc3ccc(S(=O)(=O)N4CC(C)OC(C)C4)cc3)[nH]n2)c1 (stereo not drawn)	664 nM
CCOc1ccc2[nH]c(C)cc(=NN=Cc3cccc(C)n3)c2c1	754 nM
O=C(O)c1cc(OCC(O)COc2ccc(O)c(C(=O)O)c2)ccc1O	227 nM
O=C(/C=C/c1ccc(Cl)c(Cl)c1)NCCCCCN1CCC(NC(=O)Nc2cccc(F)c2)CC1	769 nM
Cc1ccccc1C1CCN(C2CCC(NC(=O)/C=C/c3cc(F)ccc3C(F)(F)F)CC2)CC1 (stereo not drawn)	953 nM
O=C(NCC1CCC(C(=O)NCc2cccc3ccccc23)CC1)c1ccc(O)c(-c2ccc(Cl)c(Cl)c2)c1 (stereo not drawn)	749 nM
O=C(c1cc(C(=O)Nc2ccccc2F)c(=O)n(-c2ccccc2F)c1)c1cc(Cl)ccc1O	705 nM
NCc1ccc(CNCc2cccc(-c3cccc(-c4nc5cc(F)ccc5[nH]4)c3)c2)cc1	308 nM
CS(=O)(=O)c1ccc2nc(NC(=O)c3csnn3)sc2c1	666 nM
CCOc1ccc(C(=O)Nc2cc(Cl)ccc2O)cc1Cl	705 nM
CCN(CC)CCCC(C)Nc1ccnc2ccc(-c3ccccc3)cc12 (stereo not drawn)	652 nM
COc1cc(Cc2cnc(N)nc2N)ccc1OCC(=O)Nc1ccc(C)cc1	478 nM
COc1ccc(CN(C)Cc2ccc(NC(=O)c3cccc4c(=O)c5cccc(C)c5[nH]c34)cc2)cc1OC	844 nM
Cc1cc(Nc2ccc(C)c(Cl)c2)n2ncnc2n1	552 nM
CCCCCCOc1ccccc1C(=O)NCCOc1ccc(Cl)cc1	1210 nM
Cc1ccccc1C1CCN(C2CCC(NC(=O)/C=C/c3ccc(OC(F)(F)F)cc3)CC2)CC1 (stereo not drawn)	857 nM
Cc1ccc(Nc2nccc(NCC(O)c3ccc(C(F)(F)F)cc3)n2)cc1 (stereo not drawn)	491 nM
O=C(Nc1cccc(-c2nn3ncccc3c2-c2ccnc(Nc3ccc(N4CCOCC4)cc3)n2)c1)c1c(F)cccc1F	158 nM
N=C(N)c1ccc(NC(=O)Cc2nc3cc(C(=N)N)ccc3[nH]2)cc1	1380 nM
CS(=O)(=O)c1ccc2c(c1)CCN(CCC1CCC(NC(=O)c3cc4cccc(Br)c4[nH]3)CC1)CC2 (stereo not drawn)	1040 nM
COc1ccc(C2CNCc3c2cc(OC)c(OC)c3Cl)cc1 (stereo not drawn)	731 nM
O=C(NCCCCN1CCC(c2ccc(Br)cc2)CC1)c1ccc(NC(=O)c2ccc(Cl)cc2)cc1	712 nM
CCOc1ccc(C(=O)Nc2cc(Br)c3c(c2)CNCC3)cc1Br	990 nM

SMILES	XC50
CN(C)CCCNc1ccnc2cc(Cl)ccc12	283 nM
Cc1cc(O)c(CN(C)Cc2ccc3c(c2)OCCO3)cc1C(C)C	672 nM
COc1cc(C(=O)N2CCOC(CCN3CCC(c4ccc(Cl)cc4)CC3)(c3ccc(Cl)c(Cl)c3)C2)cc(OC)c1OC (stereo not drawn)	179 nM
CC1CCCN(S(=O)(=O)c2cc(Br)cc3c2N(C(=O)C2CC2)CC3)C1 (stereo not drawn)	724 nM
O=C(Nc1cc(C(F)(F)F)cc(C(F)(F)F)c1)Nc1ccc(Cl)c(Cl)c1	240 nM
CC(C)(C)c1ccc2[nH]c(-c3ccc(/C=C/C(=O)NCc4ccc(Cl)c(Cl)c4)cc3)nc2c1	35.4 nM
COc1cc(NC(=O)c2sc(-c3ccc(Cl)cc3)cc2NC(=O)N2CCCC2)ccc1OCCN1CCCC1	569 nM
O=C(c1ccc(-c2cccc(-c3nc4cc(C(F)(F)F)ccc4[nH]3)c2)cc1)N1CCCCC1CN1CCC(O)C1 (stereo not drawn)	652 nM
COc1cccc(OC)c1-c1ccccc1NC(=O)N1CCCc2cc(C)ccc21	823 nM
COc1ccc(CNCc2cccc(-c3ccc(-c4nc5ccccc5[nH]4)cc3)c2)cc1	311 nM
Cc1cc(C)c2ncc(C(=O)O)c(O)c2c1	878 nM
COc1ccc2c(c1)c(C1CCN(CCCCNC(=O)c3ccc(-c4ccc(C(F)(F)F)cc4)cc3)CC1)cn2C(C)C	729 nM
COCc1cc(C)nc2sc(C(=O)Nc3cc(C(C)(C)C)ccc3O)c(N)c12	714 nM
O=C(NC1CC1)c1cnc(N2CCN(Cc3ccc(Cl)cc3)CC2)c(Cl)c1	847 nM
Oc1cc(Nc2ccnc3cc(I)ccc23)c(F)cc1Cl	832 nM
CNCCNCc1cccc(-c2cccc(-c3nc4cccc(C)c4[nH]3)c2)c1	766 nM
CN(c1ccnc(Nc2ccc(CS(C)(=O)=O)cc2)n1)C1CCN(Cc2ccccc2)CC1	1400 nM
CC(CCc1ccccc1)NCC(O)c1ccc2c(c1)S(=O)(=O)c1ccccc1N2 (stereo not drawn)	1220 nM
CCN(CC)CCCCNc1cc(-c2[nH]c(C(C)(C)C)nc2-c2ccc3cc(OC)ccc3c2)ccn1	531 nM
COc1cccc2cc(C(=O)N[C@@H](CC(C)C)C(=O)N[C@H](/C=N/NC(=O)c3ccccc3)Cc3c[nH]cn3)oc12	130 nM
CCOC(=O)C1=C(C)NC(C)=C(C(=O)OCC)C1(C(=O)OCc1ccccc1)c1cccc(C(F)(F)F)c1	1230 nM
COc1c(C=NNc2nc(=Nc3ccccc3)[nH]c(=Nc3ccccc3)[nH]2)ccc(Br)c1O	720 nM
CC(C)CN1C(=O)c2ccc(C(=O)Nc3nccs3)cc2C1=O	971 nM
N#Cc1cccc(C(=O)NC2CCN(CCCCCNC(=O)/C=C/c3ccc(Cl)c(Cl)c3)CC2)c1	876 nM
O=C(COc1ccc(C(=O)c2ccccc2)cc1)Nc1nccs1	887 nM

SMILES	XC50
COc1ccc(CN2CCC(NCc3ccc(C(F)(F)F)cc3)CC2)cc1	916 nM
O=C(CSc1nnc(-c2ccccc2Br)[nH]1)c1c[nH]c2ccccc12	982 nM
COc1ccc(-c2ccc(NC(=O)c3cccc(C#N)c3)cc2)cc1CN1CCNCC1	728 nM
COc1ccc(CN2CCC(CNCc3cccc(-c4ccccc4)c3)CC2)cc1	236 nM
CC(NC(=O)c1ccc(O)c(-c2ccc(Cl)c(Cl)c2)c1)C(=O)NCCN1CCCCC1 (stereo not drawn)	868 nM
O=C(Cc1ccc(NC(=O)c2ccc(O)c(-c3ccc(Cl)c(Cl)c3)c2)cc1)NCCN1CCOCC1	806 nM
COc1cc2c(cc1OCCN1CCC(N3CCCC3)CC1)N(C(=O)/C=C/c1ccccc1Cl)CC2	659 nM
CC(C)c1ccc(C2CCN(CCCCNC(=O)c3ccc(NC(=O)c4ccc(C(F)(F)F)cc4)cc3)CC2)c(O)c1	579 nM
Cc1ccc(NC(=O)Nc2ccc(Cl)cc2)cc1-c1cccc(C(=O)Nc2ccc(F)cc2)c1	735 nM
CCCCCCNCc1c(O)ccc2c(CNCCCCCC)c(O)ccc12	130 nM
O=C(/C=C/c1ccc(Cl)cc1)NCCCCCN1CCN(C(=O)C=Cc2ccc(Cl)c(Cl)c2)CC1	987 nM
O=C([C@H]1CCCCN1c1ccc([N+](=O)[O-])c2ccccc12)N1CCN(c2ncccn2)CC1	199 nM
O=C1C2C3SC(c4c3ccc3ccccc43)C2C(=O)N1c1ccccc1 (stereo not drawn)	770 nM
CCN1CCc2c1cc(C(=O)N[C@@H](Cc1ccccc1)[C@H](O)CNC(C)(C)c1cccc(C(F)(F)F)c1)cc2N1CCCCS1(=O)=O	109 nM
OCCN1CCN(C2Cc3ccc(F)cc3Sc3ccc(Cl)cc32)CC1 (stereo not drawn)	876 nM
COc1ccc2ncc(F)c([C@H](O)CN3CCC(NCc4ccc5c(c4)OCCO5)CC3)c2c1	152 nM
O=C(COc1ccccc1)N(Cc1ccc(-c2ccc(CNC3Cc4ccccc4C3)cc2)cc1)C1CCNCC1	1020 nM
CN(C)c1ccc(CN2CCC(CNC(=O)c3cc(-c4cccc(C(F)(F)F)c4)cs3)C2)cc1 (stereo not drawn)	882 nM
O=[N+]([O-])c1nc(Br)n(Cc2ccc(Cl)cc2)n1	360 nM
Cc1cc(N(C)CCN(C)C)nc(Nc2ccc(Cl)cc2)n1	968 nM
CC(C)c1cccc(OCC2CCN(c3ccc(C(=O)Nc4ccccc4)cn3)CC2)c1	701 nM
COc1ccc(NC(=O)c2ccc(NC(=O)c3ccc(Cl)cc3)cc2)cc1N1CCN(C)CC1	849 nM
CCn1cnc2c(N3CCCC3=O)cc(C(=O)N[C@@H](Cc3ccccc3)[C@H](O)CNC3CCCCC3)cc21	574 nM
Cc1ccc(O)cc1Nc1ccnc2cc(-c3ccncc3)ccc12	723 nM
COc1ccc(C2CC(c3cccs3)=NN2C(=O)COc2cccc3c2CCCC3O)cc1OC (stereo not drawn)	1150 nM

SMILES	XC50
C[C@@H](CC1CCCCC1)OC(=O)N(C)[C@H]1CCN(C#N)C1	219 nM
O=C(Nc1ccccc1)Nc1ccc(-n2ccc(C(F)(F)F)n2)cc1	632 nM
O=C(Nc1cccc(CN2CCCN(Cc3ccc(O)cc3)CC2)c1)c1ccc(Cl)c(Cl)c1	259 nM
CN1CCN(CCCCCNc2c3ccccc3nc3ccccc23)CC1	741 nM
COc1cccc(NC(=O)COc2ccc(C(=O)Nc3nc4ccccc4[nH]3)cc2)c1	970 nM
CCNc1cc(C(=O)N[C@@H](Cc2ccccc2)[C@H](O)CNC2CC3CCC2C3)cc(N2CCCCS2(=O)=O)c1 (stereo partly drawn)	237 nM
N#Cc1ccc2c(c1)CCN(CCC1CCC(NC(=O)/C=C/c3cc(Br)cs3)CC1)CC2 (stereo not drawn)	997 nM
CCc1ccccc1OCCCON1C(=N)N=C(N)NC1(C)C	3.2 nM
O=C(Nc1cccc(CN2CCCN(Cc3cccc(Cl)c3)CC2)c1)c1ccc(Cl)c(Cl)c1	992 nM
O=C(/C=C/c1ccc(Cl)cc1Cl)NCCCCCN1CCC(c2c[nH]c3ccccc23)CC1	941 nM
CCc1ccc(CN(CCCOc2cccc(CC(=O)NCc3c[nH]cn3)c2)Cc2ccc(-n3ccnc3)cc2)cc1	979 nM
CC1CCCN(c2ccc(NC(=O)c3cccs3)cc2[N+](=O)[O-])C1 (stereo not drawn)	669 nM
COc1cccc(CC(=O)NC2CCN(c3ccnc4cc(Cl)ccc34)C2)c1 (stereo not drawn)	704 nM
CC(C)=CC1C(C(=O)n2c(=N)[nH]c3ccccc32)C1(C)C (stereo not drawn)	193 nM
O=C(CC1CCCCC1)NCC(NCCCNc1cc(=O)c2ccccc2[nH]1)c1cc(Br)cc(Br)c1 (stereo not drawn)	1050 nM
CC1CN(Cc2ccc(-c3ccc(-c4nc5ccccc5[nH]4)cc3)cc2)CC(C)O1 (stereo not drawn)	523 nM
Cc1cnc(Nc2cccc(CCN3CCOCC3)c2)nc1NC(C)C	738 nM
O=c1cc(NCC2(CNCc3cn(Cc4ccccc4)c4ccccc34)CCCCC2)[nH]c2ccccc12	684 nM
COC(=O)C(NC(=O)c1ccc(-c2ccc(-c3nc4ccccc4[nH]3)s2)cc1)c1ccc(O)cc1 (stereo not drawn)	738 nM
COc1ccc(NC(=O)NC2CCN(c3ccnc4ccccc34)C2)cc1 (stereo not drawn)	875 nM
c1ccc2c(c1)CN(Cc1ccsc1)CC1(CCN(Cc3c[nH]c4cnccc34)CC1)O2	1150 nM
O=C(/C=C/c1ccc(Cl)c(Cl)c1)NCCCCCN1CCCN(C(=O)Nc2cccc(Cl)c2)CC1	669 nM
COC1CCC(C(=O)Nc2ccc(-c3cccc(-c4nc5cccc(C)c5[nH]4)c3)cc2)CC1 (stereo not drawn)	585 nM
